# “And” between values parts separate entries of the source, which are not always exact repeats. Equal entries are not always repeated. Where two headings read alike, the source gives them in different places.
# Key:
# [1] = biological target: T1, OA1 (Homo sapiens, UniProt P51810); assay: Measurement of [Ca2+]i (Fura-2 ratiometric imaging) in CHO cells transfected to express OA1; assay type: cell-based; set-up: expressed in transfected cells; host or cells: CHO cells (ATCC)
# [2] = tested on: PEDF secretion by RPE; assay: PEDF secretion by pigmented RPE cells (ELISA of conditioned medium); assay type: cell-based
# Procedure: Mutations in OA1 cause defects in the development of the neurosensory retina. […] After treatment, the cells were returned to standard medium without exogenous L-DOPA for three days. Control cells were not treated with L-DOPA, but the medium was changed at the same time the experimental cells were returned to normal medium. Conditioned medium was collected after three days and PEDF was measured.
# In these experiments, pigmented RPE cells were either maintained in DMEM, or DMEM containing 200 μM PTU for three days, then PEDF secretion was measured. […] The data are presented as percent of control for this experiment because the cultures used varied in both pigmentation and PEDF expression before the experiment began.
# [3] = biological target: T1, OA1; conditions: untransfected cells
# [4] = biological target: T1, OA1; assay: Radiolabeled ligand binding of [3H]-L-DOPA to CHO cells transfected to express OA1 (saturation); set-up: expressed in transfected cells; host or cells: CHO cells (ATCC)
# [5] = biological target: T1, OA1; conditions: 1.0 μM
# [6] = tested on: retinal ganglion cells and photoreceptors; assay: L-DOPA supplementation in drinking water of tyrosinase deficient pregnant mice and pups (E7 to P14); assay type: in vivo; conditions: 1.0 mg/ml in drinking water, E7 to P14, tyrosinase deficient mice
# [7] = biological target: T1, OA1; assay: Cell surface biotinylation / western blot of OA1 in cultured cells at lowered tyrosine; assay type: cell-based; set-up: expressed in transfected cells; host or cells: CHO cells (ATCC)
# Procedure: Endosomal localization of GPCRs occurs normally after exposure to a ligand. Therefore, it was investigated whether a ligand for the receptor was present in the standard incubation medium that could drive internalization of OA1. Since the standard culture medium contains 500 μM tyrosine, and tyrosine is the starting material for pigment synthesis, the effect of tyrosine on receptor distribution was evaluated. To test whether tyrosine affected OA1 distribution in cultured cells DMEM was formulated without tyrosine, and dialyzed fetal bovine serum was used. In the presence of tyrosine-free medium, OA1 was detected on the plasma membrane of cultured RPE cells both in the absence (not shown), and in medium containing low concentrations of tyrosine (1 μM, FIG. 1 B). […] Similarly, OA1-GFP expressed in COS illustrated a cell surface expression that was tyrosine sensitive (FIG. 1 C). Quantification of six such experiments indicated significant variability in the amount of OA1 found at the cell surface using transient transfections. […]
# Not only was the distribution of OA1 in transfected cells sensitive to tyrosine levels in the medium, total OA1-GFP expression was increased 5-fold in cells maintained in 1 μM tyrosine. To verify that this difference related to OA1 expression rather than cell number, actin expression was evaluated from the paired samples. […]
# [8] = biological target: T1, OA1; assay: Competitive binding against 5 μM [H3] L-DOPA in OA1 transfected CHO cells; set-up: expressed in transfected cells; host or cells: CHO cells (ATCC)
# T1 sequence (P51810 whole entry): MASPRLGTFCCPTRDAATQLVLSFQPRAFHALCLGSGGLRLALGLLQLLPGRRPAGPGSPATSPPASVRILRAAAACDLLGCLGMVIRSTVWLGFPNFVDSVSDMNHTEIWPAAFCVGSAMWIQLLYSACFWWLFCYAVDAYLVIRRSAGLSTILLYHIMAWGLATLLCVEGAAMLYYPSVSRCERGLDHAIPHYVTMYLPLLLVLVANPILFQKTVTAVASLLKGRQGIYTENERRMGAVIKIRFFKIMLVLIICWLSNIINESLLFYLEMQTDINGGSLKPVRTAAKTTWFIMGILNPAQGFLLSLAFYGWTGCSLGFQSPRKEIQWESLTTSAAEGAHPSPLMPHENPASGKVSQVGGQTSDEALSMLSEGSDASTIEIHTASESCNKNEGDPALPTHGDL
molecule,measurement,setting,value
pertussis toxin,basal level of [Ca2+]i,"[1]; all cells studied (transfected CHO and RPE, RPE with endogenous OA1)",lowered the basal level
"NC(=S)Nc1ccccc1 [PTU, phenylthiourea]",PEDF secretion,"[2]; 200 μM for three days, pigmented RPE",significant decrease
"N[C@@H](Cc1ccc(O)c(O)c1)C(=O)O [L-DOPA, 2-amino-3-(3,4-dihydroxyphenyl)propanoic acid]",β-arrestin distribution response,[3],no response
same,pertussis toxin sensitivity of the [Ca2+]i increase,"[1]; in presence of pertussis toxin, CHO and RPE",not pertussis toxin sensitive
same,Kd,"[4]; Kd of L-DOPA binding to OA1, OA1 transfected CHO cells, [3H]-L-DOPA",9.34 µM and 9.35 µM
same,specific binding of L-DOPA,[4]; untransfected CHO cells,No specific binding
same,change in [Ca2+]i,[5]; RPE cells transfected to express OA1,increase
same,change in [Ca2+]i,[5]; RPE expressing endogenous OA1,increase
same,photoreceptor nuclear area (measure of photoreceptor numbers),[6],increased the photoreceptor nuclear area
same,retinal ganglion cell numbers,[6],increases retinal ganglion cell numbers
same,PEDF secretion,"[2]; 1 μM for one hour, medium collected after three days, vs paired control pigmented RPE",significant increase
same,PEDF secretion,"[2]; 1.0 μM in continued presence of PTU, measured after 72 hours",increasing PEDF secretion
N[C@@H](Cc1ccc(O)cc1)C(=O)O [tyrosine],OA1 in the bound (cell surface) fraction,[7]; OA1-GFP transfected COS cells maintained in 1 μM tyrosine,5-40%
same,increase of total OA1-GFP expression,[7]; transfected cells in 1 μM tyrosine vs normal DMEM (500 μM),5 fold
same,effect on [Ca2+]i,"[1]; concentrations up to 1 mM, OA1 transfected CHO cells",no positive effect
same,Ki,[8],52.9 µM
same,competition with L-DOPA for OA1 binding,[8]; competitor at 1 mM,competed with L-DOPA

# Source: patent publication US9861600B2, “Methods and compositions for treating and identifying compounds to treat age-related macular degeneration treatment” (Arizona Board of Regents on behalf of the University of …, priority 2008, dated 2018)
